Reference: patent US7820623B2 (priority 2006, dated 2010)
Bridge positions count the residues as written; N and C are the ends. Square brackets hold non-standard residues; d marks the D form. Peptide text beside a SMILES is read from it. 1Nal = N[C@@H](Cc1cccc2ccccc12)C(=O)O

Experiments:
[1] = system: thapsigargin-induced IFN-g production in human whole blood; type: cell-based; details: read-out: Analogue Activity (IC50) WB/IFNg
[2] = system: thapsigargin-induced IL-2 production in human whole blood; details: read-out: Analogue Activity (IC50) WB/IL-2

Row | SMILES | IC50 [1] [nM] | IC50 [2] [nM]
1 | CC[C@H](C)[C@@H]1NC(=O)[C@H](CCCCN)NC(=O)[C@@H](NC(=O)[C@H](CCCCN)NC(=O)[C@@H](NC(=O)[C@H](Cc2cccc3ccccc23)NC(=O)[C@@H](NC(=O)[C@@H](NC(=O)[C@@H](NC(=O)CN)C(C)C)[C@@H](C)CC)[C@@H](C)CC)C(C)C)CSSC[C@@H]2NC(=O)[C@H](CCCCN)NC(=O)CNC(=O)[C@H](Cc3ccccc3)NC(=O)[C@H](CCCNC(=N)N)NC(=O)[C@H](CCSC)NC(=O)CNC(=O)[C@H](C)NC(=O)[C@H](CCCCN)NC(=O)[C@H](CCCCN)NC(=O)[C@@H]3CSSC[C@@H](C(=O)N[C@H](C(=O)N4CCC[C@H]4C(=O)N[C@@H](CCCCN)C(=O)O)[C@@H](C)O)NC(=O)[C@H](Cc4c[nH]cn4)NC(=O)[C@H](CSSC[C@H](NC(=O)[C@H](CCC(N)=O)NC(=O)[C@H](CCCNC(=N)N)NC(=O)[C@H](CO)NC1=O)C(=O)N[C@@H](CC(C)C)C(=O)N[C@@H](CCC(=O)O)C(=O)N1CCC[C@H]1C(=O)N3)NC(=O)[C@H](CCCCN)NC(=O)CNC(=O)[C@H](CC(N)=O)NC(=O)[C@H](CCSC)NC2=O [N5Nal] (H-GVII[1Nal]VKCKISRQCLEPCKKAGMRFGKCMNGKCHCTPK-OH; disulfide 8-28, 14-33, 18-35) | 0.431 | 0.76
2 | CC[C@H](C)[C@@H]1NC(=O)[C@H](CCCCN)NC(=O)[C@@H](NC(=O)[C@H](CCCCN)NC(=O)[C@@H](NC(=O)[C@H](CCCNC(=N)N)NC(=O)[C@@H](NC(=O)[C@@H](NC(=O)[C@@H](NC(=O)CN)C(C)C)[C@@H](C)CC)[C@@H](C)CC)C(C)C)CSSC[C@@H]2NC(=O)[C@H](CCCCN)NC(=O)CNC(=O)[C@H](Cc3ccccc3)NC(=O)[C@H](CCCNC(=N)N)NC(=O)[C@H](CCSC)NC(=O)CNC(=O)[C@H](C)NC(=O)[C@H](CCCCN)NC(=O)[C@H](CCCCN)NC(=O)[C@@H]3CSSC[C@@H](C(=O)N[C@H](C(=O)N4CCC[C@H]4C(=O)N[C@@H](CCCCN)C(=O)O)[C@@H](C)O)NC(=O)[C@H](Cc4c[nH]cn4)NC(=O)[C@H](CSSC[C@H](NC(=O)[C@H](CCC(N)=O)NC(=O)[C@H](CCCNC(=N)N)NC(=O)[C@H](CO)NC1=O)C(=O)N[C@@H](CC(C)C)C(=O)N[C@@H](CCC(=O)O)C(=O)N1CCC[C@H]1C(=O)N3)NC(=O)[C@H](CCCCN)NC(=O)CNC(=O)[C@H](CC(N)=O)NC(=O)[C@H](CCSC)NC2=O [N5R] (H-GVIIRVKCKISRQCLEPCKKAGMRFGKCMNGKCHCTPK-OH; disulfide 8-28, 14-33, 18-35) | 0.12 | 0.095
3 | CC[C@H](C)[C@@H]1NC(=O)[C@H](CCCCN)NC(=O)[C@@H](NC(=O)[C@H](CCCCN)NC(=O)[C@@H](NC(=O)[C@H](CC(N)=O)NC(=O)[C@@H](NC(=O)[C@@H](NC(=O)[C@@H](NC(=O)CN)C(C)C)[C@@H](C)CC)[C@@H](C)CC)C(C)C)CSSC[C@@H]2NC(=O)[C@H](CCCCN)NC(=O)CNC(=O)[C@H](Cc3ccccc3)NC(=O)[C@H](CCCNC(=N)N)NC(=O)[C@H](CCSC)NC(=O)CNC(=O)[C@H](C)NC(=O)[C@H](CCCCN)NC(=O)[C@H](CCCCN)NC(=O)[C@@H]3CSSC[C@@H](C(=O)N[C@H](C(=O)N4CCC[C@H]4C(=O)N[C@@H](CCCCN)C(=O)O)[C@@H](C)O)NC(=O)[C@H](Cc4c[nH]cn4)NC(=O)[C@H](CSSC[C@H](NC(=O)[C@H](CCC(N)=O)NC(=O)[C@H](CCCNC(=N)N)NC(=O)[C@H](CO)NC1=O)C(=O)N[C@@H](CC(C)C)C(=O)N[C@@H](CCC(=O)O)C(=O)N1CCC[C@H]1C(=O)N3)NC(=O)[C@H](CCCCN)NC(=O)CNC(=O)[C@H](CCCNC(=N)N)NC(=O)[C@H](CCSC)NC2=O [N30R] (H-GVIINVKCKISRQCLEPCKKAGMRFGKCMRGKCHCTPK-OH; disulfide 8-28, 14-33, 18-35) | 0.445 | 0.405
4 | CC[C@H](C)[C@@H]1NC(=O)[C@H](CCCCN)NC(=O)[C@@H](NC(=O)[C@H](CCCCN)NC(=O)[C@@H](NC(=O)[C@H](CC(N)=O)NC(=O)[C@@H](NC(=O)[C@@H](NC(=O)[C@@H](NC(=O)CN)C(C)C)[C@@H](C)CC)[C@@H](C)CC)C(C)C)CSSC[C@@H]2NC(=O)[C@H](CCCCN)NC(=O)CNC(=O)[C@H](Cc3ccccc3)NC(=O)[C@H](CCCNC(=N)N)NC(=O)[C@H](CCSC)NC(=O)CNC(=O)[C@H](C)NC(=O)[C@H](CCCCN)NC(=O)[C@H](CCCCN)NC(=O)[C@@H]3CSSC[C@@H](C(=O)N[C@H](C(=O)N4CCC[C@H]4C(=O)N[C@@H](CCCCN)C(=O)O)[C@@H](C)O)NC(=O)[C@H](Cc4c[nH]cn4)NC(=O)[C@H](CSSC[C@H](NC(=O)[C@H](CCC(N)=O)NC(=O)[C@H](CCCNC(=N)N)NC(=O)[C@H](CO)NC1=O)C(=O)N[C@@H](CC(C)C)C(=O)N[C@@H](CCC(=O)O)C(=O)N[C@@H](C)C(=O)N3)NC(=O)[C@H](CCCCN)NC(=O)CNC(=O)[C@H](CC(N)=O)NC(=O)[C@H](CCSC)NC2=O [P17A] (H-GVIINVKCKISRQCLEACKKAGMRFGKCMNGKCHCTPK-OH; disulfide 8-28, 14-33, 18-35) | 0.173 | 0.173
5 | CC[C@H](C)[C@@H]1NC(=O)[C@H](CCCCN)NC(=O)[C@@H](NC(=O)[C@H](CCCCN)NC(=O)[C@@H](NC(=O)[C@H](CC(N)=O)NC(=O)[C@@H](NC(=O)[C@@H](NC(=O)[C@@H](NC(=O)CN)C(C)C)[C@@H](C)CC)[C@@H](C)CC)C(C)C)CSSC[C@@H]2NC(=O)[C@H](CCCCN)NC(=O)CNC(=O)[C@H](Cc3ccccc3)NC(=O)[C@H](CCCNC(=N)N)NC(=O)[C@H](CCSC)NC(=O)CNC(=O)[C@H](C)NC(=O)[C@H](CCCCN)NC(=O)[C@H](CCCCN)NC(=O)[C@@H]3CSSC[C@@H](C(=O)N[C@H](C(=O)N4CCC[C@H]4C(=O)N[C@@H](CCCCN)C(=O)O)[C@@H](C)O)NC(=O)[C@H](Cc4c[nH]cn4)NC(=O)[C@H](CSSC[C@H](NC(=O)[C@H](CCC(N)=O)NC(=O)[C@H](CCCNC(=N)N)NC(=O)[C@H](CO)NC1=O)C(=O)N[C@@H](CC(C)C)C(=O)N[C@@H](CCC(=O)O)C(=O)N[C@@H](CCC(=O)O)C(=O)N3)NC(=O)[C@H](CCCCN)NC(=O)CNC(=O)[C@H](CC(N)=O)NC(=O)[C@H](CCSC)NC2=O [P17E] (H-GVIINVKCKISRQCLEECKKAGMRFGKCMNGKCHCTPK-OH; disulfide 8-28, 14-33, 18-35) | 0.947 | 0.52
6 | CC[C@H](C)[C@@H]1NC(=O)[C@H](CCCCN)NC(=O)[C@@H](NC(=O)[C@H](CCCCN)NC(=O)[C@@H](NC(=O)[C@H](CC(N)=O)NC(=O)[C@@H](NC(=O)[C@@H](NC(=O)[C@@H](NC(=O)CN)C(C)C)[C@@H](C)CC)[C@@H](C)CC)C(C)C)CSSC[C@@H]2NC(=O)[C@H](CCCCN)NC(=O)CNC(=O)[C@H](Cc3ccccc3)NC(=O)[C@H](CCCNC(=N)N)NC(=O)[C@H](CCSC)NC(=O)CNC(=O)[C@H](C)NC(=O)[C@H](CCCCN)NC(=O)[C@H](CCCCN)NC(=O)[C@@H]3CSSC[C@@H](C(=O)N[C@H](C(=O)N4CCC[C@H]4C(=O)N[C@@H](CCCCN)C(=O)O)[C@@H](C)O)NC(=O)[C@H](Cc4c[nH]cn4)NC(=O)[C@H](CSSC[C@H](NC(=O)[C@H](CCC(N)=O)NC(=O)[C@H](CCCNC(=N)N)NC(=O)[C@H](CO)NC1=O)C(=O)N[C@@H](CC(C)C)C(=O)N[C@@H](CCC(=O)O)C(=O)N[C@@H](Cc1cccc4ccccc14)C(=O)N3)NC(=O)[C@H](CCCCN)NC(=O)CNC(=O)[C@H](CC(N)=O)NC(=O)[C@H](CCSC)NC2=O [P17Nal] (H-GVIINVKCKISRQCLE[1Nal]CKKAGMRFGKCMNGKCHCTPK-OH; disulfide 8-28, 14-33, 18-35) | 0.357 | 0.193
